PubChem BioAssay (NCI)
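Compound exposure: 48 hours, 5 concentrations, 96-well plates. GI50 = concentration required for 50% inhibition of growth. TGI: concentration producing complete growth inhibition.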

Experiments:
Test in all cases: NCI anticancer screen, dose series, 48 h
[1] = tested on: U251 CNS
[2] = tested on: A498 renal
[3] = tested on: COLO 205 colon
[4] = tested on: SN12C renal
[5] = tested on: UACC-257 melanoma
[6] = tested on: M14 melanoma
[7] = tested on: MALME-3M melanoma
[8] = tested on: SNB-19 CNS
[9] = tested on: MDA-MB-231 breast
[10] = tested on: NCI-H522 lung

In the case of CN1C(c2ccccc2)CS(=O)(=O)CS1(=O)=O (stereo not drawn), the TGI [1] is reported as over 100 µM, the TGI [2] is reported as over 100 µM and the TGI [3] is reported as over 100 µM. It also gave a TGI [4] of over 100 µM, a TGI [5] of over 100 µM and a TGI [6] of over 100 µM. It also gave a TGI [7] of over 100 µM and a TGI [8] of over 100 µM.

O/N=C1/C(=C/c2ccc(Oc3ccccc3)cc2)CCCC1C(NO)c1ccc(Oc2ccccc2)cc1 (stereo not drawn) gave a TGI [1] of over 100 µM, a TGI [3] of 35.8 µM and a TGI [4] of 96.7 µM. The TGI [5] was over 100 µM, the TGI [6] was over 100 µM and the TGI [7] was over 100 µM. For the same molecule, the TGI [8] was over 100 µM.

Work on Nc1nc2cc3ccc(C4CC(O)C(CO)O4)cc3cc2c(=O)[nH]1 (stereo not drawn) yielded a GI50 [1] of over 100 µM, a TGI [1] of over 100 µM and a GI50 [2] of 26.8 µM. The TGI [2] was over 100 µM, the GI50 [3] was over 100 µM and the TGI [3] was over 100 µM. It also gave a GI50 [4] of over 100 µM, a TGI [4] of over 100 µM and a GI50 [5] of over 100 µM. It also gave a TGI [5] of over 100 µM, a GI50 [9] of over 100 µM and a TGI [9] of over 100 µM. It also gave a GI50 [6] of over 100 µM, a TGI [6] of over 100 µM and a GI50 [8] of over 100 µM. For the same molecule, the TGI [8] was over 100 µM, the GI50 [10] was over 100 µM and the TGI [10] was over 100 µM.

CC(=O)[O-].[Mn+3].[O-]c1ccccc1C=NCCN=Cc1ccccc1[O-] gave a GI50 [1] of over 100 µM, a TGI [1] of over 100 µM and a GI50 [2] of over 100 µM. For the same molecule, the TGI [2] was over 100 µM, the GI50 [3] was over 100 µM and the TGI [3] was over 100 µM. The GI50 [4] was over 100 µM, the TGI [4] was over 100 µM and the GI50 [5] was 51.2 µM. The TGI [5] was over 100 µM, the GI50 [6] was over 100 µM and the TGI [6] was over 100 µM. It also gave a GI50 [7] of over 100 µM, a TGI [7] of over 100 µM and a GI50 [8] of over 100 µM. The TGI [8] was over 100 µM, the GI50 [10] was 16 µM and the TGI [10] was over 100 µM.

Molecule O=C(O)c1cc2ccccc2c(N=Nc2cc(C(F)(F)F)ccc2Cl)c1O has a TGI [1] of over 100 µM, a TGI [3] of over 100 µM and a TGI [4] of over 100 µM. It also gave a TGI [5] of over 100 µM, a TGI [9] of 86.7 µM and a TGI [6] of over 100 µM. The TGI [7] was over 100 µM, the TGI [8] was 21.5 µM and the TGI [10] was over 100 µM.

Molecule COC(=O)CCC(=O)Nc1cc(Cl)ccc1Cl has a TGI [1] of over 100 µM, a TGI [4] of over 100 µM and a TGI [5] of over 100 µM. The TGI [6] was over 100 µM, the TGI [7] was over 100 µM and the TGI [8] was over 100 µM. For the same molecule, the TGI [10] was over 100 µM.

O=S(=O)(SCc1ccccc1)C(c1ccccc1)c1ccccc1 gave a TGI [1] of over 100 µM, a TGI [2] of over 100 µM and a TGI [3] of 36.8 µM. It also gave a TGI [4] of 68.2 µM, a TGI [5] of over 100 µM and a TGI [6] of 59.7 µM. For the same molecule, the TGI [7] was over 100 µM, the TGI [8] was over 100 µM and the TGI [10] was 57.8 µM.

In the case of CC1=C(C(=O)Nc2cc(=O)n(C)c(=O)n2C)C(c2ccc([N+](=O)[O-])cc2)C(C(=O)Nc2cc(=O)n(C)c(=O)n2C)=C(C)N1, the TGI [1] is reported as over 100 µM, the TGI [2] is reported as over 100 µM and the TGI [3] is reported as over 100 µM. The TGI [4] was over 100 µM, the TGI [5] was over 100 µM and the TGI [6] was over 100 µM. It also gave a TGI [7] of over 100 µM, a TGI [8] of over 100 µM and a TGI [10] of over 100 µM.

For Cc1ccccc1C(=O)Oc1ccc(O)cc1, the TGI [1] was over 100 µM, the TGI [2] was over 100 µM and the TGI [3] was over 100 µM. For the same molecule, the TGI [4] was over 100 µM, the TGI [5] was over 100 µM and the TGI [6] was over 100 µM. For the same molecule, the TGI [7] was over 100 µM, the TGI [8] was over 100 µM and the TGI [10] was over 100 µM.

With COc1ccc(N/N=C(\CCN(C)C)c2ccccc2)cc1 the TGI [1] was 4.55 µM, the TGI [2] was 29.6 µM and the TGI [3] was 7.84 µM. The TGI [4] was 17.2 µM, the TGI [5] was 16.4 µM and the TGI [6] was 24.2 µM. The TGI [7] was 35.2 µM, the TGI [8] was 14.5 µM and the TGI [10] was 30 µM.

With CN(C)CCNC(=O)c1cccc2c(Nc3ccc(S(N)(=O)=O)cc3)c3ccccc3nc12 the TGI [1] was 4.69 µM, the TGI [2] was 7.08 µM and the TGI [3] was 1.75 µM. The TGI [4] was 3.9 µM, the TGI [5] was 9.83 µM and the TGI [6] was 5.72 µM. For the same molecule, the TGI [7] was 3.88 µM, the TGI [8] was 10.7 µM and the TGI [10] was 2.8 µM.

With CC(=O)O[C@H]1CCC2[C@@H]3CCC4=C(O)C(=O)C(C#N)C[C@]4(C)C3CC[C@@]21C (stereo partly drawn) the TGI [1] was over 100 µM, the TGI [2] was 0.891 µM and the TGI [3] was 84.4 µM. For the same molecule, the TGI [4] was over 100 µM, the TGI [5] was over 100 µM and the TGI [6] was over 100 µM. The TGI [7] was over 100 µM and the TGI [8] was over 100 µM.

In the case of O=Cc1ccc(-c2ccc(-c3nc4ccccc4o3)cc2)s1, the GI50 [1] is reported as 29.1 µM, the TGI [1] is reported as 80.8 µM and the GI50 [3] is reported as 32.1 µM. The TGI [3] was over 100 µM, the GI50 [4] was 29.4 µM and the TGI [4] was 81.3 µM. It also gave a GI50 [5] of 49.3 µM, a TGI [5] of over 100 µM and a GI50 [9] of 21.9 µM. The TGI [9] was 55.2 µM, the GI50 [6] was 26.6 µM and the TGI [6] was 70 µM. It also gave a GI50 [8] of 49.2 µM, a TGI [8] of over 100 µM and a GI50 [10] of 47.3 µM. For the same molecule, the TGI [10] was over 100 µM.

For CC#C/C(=N\OC[C@H]1COCCN1)c1ccc2ncnc(Nc3ccc(OCc4cccc(F)c4)c(Cl)c3)c2c1, the GI50 [1] was 1.71 µM, the TGI [1] was 3.22 µM and the GI50 [2] was 2.07 µM. For the same molecule, the TGI [2] was 7.7 µM, the GI50 [3] was 1.77 µM and the TGI [3] was 3.33 µM. The GI50 [5] was 1.85 µM, the TGI [5] was 3.45 µM and the GI50 [9] was 1.72 µM. For the same molecule, the TGI [9] was 3.14 µM, the GI50 [6] was 1.76 µM and the TGI [6] was 3.59 µM. For the same molecule, the GI50 [8] was 1.3 µM, the TGI [8] was 2.69 µM and the GI50 [10] was 0.393 µM. It also gave a TGI [10] of 2.25 µM.

With COc1cc(O)c2c(c1)C(=O)C=C(Cl)C2=O the TGI [1] was over 100 µM, the TGI [2] was over 100 µM and the TGI [3] was over 100 µM. For the same molecule, the TGI [5] was over 100 µM, the TGI [6] was over 100 µM and the TGI [7] was over 100 µM. For the same molecule, the TGI [8] was over 100 µM and the TGI [10] was over 100 µM.

In the case of O=C(Cc1nc2ccccc2s1)C(=O)Nc1cccc(Cl)c1, the TGI [1] is reported as over 100 µM, the TGI [2] is reported as over 100 µM and the TGI [3] is reported as over 100 µM. The TGI [4] was over 100 µM, the TGI [5] was over 100 µM and the TGI [6] was over 100 µM. It also gave a TGI [7] of over 100 µM, a TGI [8] of over 100 µM and a TGI [10] of over 100 µM.

CC(=O)OC1CC2Oc3ccc(C)cc3C(C)(O2)C1=O (stereo not drawn) gave a TGI [1] of over 100 µM, a TGI [3] of over 100 µM and a TGI [4] of over 100 µM. It also gave a TGI [5] of over 100 µM, a TGI [6] of over 100 µM and a TGI [7] of over 100 µM. The TGI [8] was over 100 µM and the TGI [10] was over 100 µM.

Work on C#CCN(N=O)C(=O)NC(CCCNC(=O)OCc1ccccc1)C(=O)OCc1ccccc1 (stereo not drawn) yielded a TGI [1] of over 100 µM, a TGI [2] of over 100 µM and a TGI [3] of over 100 µM. It also gave a TGI [4] of over 100 µM, a TGI [5] of over 100 µM and a TGI [6] of over 100 µM. The TGI [7] was over 100 µM, the TGI [8] was over 100 µM and the TGI [10] was 27.2 µM.

Molecule CCOC(=O)C(=O)Nc1ccc(Cl)cc1C has a TGI [1] of over 100 µM, a TGI [3] of over 100 µM and a TGI [4] of over 100 µM. The TGI [5] was over 100 µM, the TGI [6] was over 100 µM and the TGI [7] was over 100 µM. It also gave a TGI [8] of over 100 µM and a TGI [10] of over 100 µM.

With COc1ccc(NC(=O)CC/C(CC(=O)C(C)(C)C)=N\NC(=O)C(N)=O)cc1 the TGI [1] was over 100 µM, the TGI [3] was over 100 µM and the TGI [4] was over 100 µM. It also gave a TGI [5] of over 100 µM, a TGI [6] of over 100 µM and a TGI [7] of over 100 µM. For the same molecule, the TGI [8] was over 100 µM.

For CCN1C2=NCCN2S(=O)(=O)c2ccccc21, the TGI [1] was over 100 µM, the TGI [2] was over 100 µM and the TGI [3] was over 100 µM. For the same molecule, the TGI [4] was over 100 µM, the TGI [5] was over 100 µM and the TGI [9] was over 100 µM. The TGI [6] was over 100 µM, the TGI [8] was over 100 µM and the TGI [10] was over 100 µM.

With O=c1cc(-c2ccccc2)oc2cc(O)cc(O)c12 the TGI [1] was 87.5 µM, the TGI [3] was 37.9 µM and the TGI [4] was 54.6 µM. The TGI [5] was 62.3 µM, the TGI [6] was 82.9 µM and the TGI [7] was 51.8 µM. The TGI [8] was 88.8 µM and the TGI [10] was 33 µM.
